Results on 15 compounds are retold here after PMC3500254, “Potent Inhibition of Late Stages of Hepadnavirus Replication by a Modified Cell Penetrating Peptide” (PLoS ONE, 2012).

Where two headings read alike, the source gives them in different places. Non-standard residues stand in square brackets, D forms with d. Residues, ends and D or L forms follow the SMILES beside them. *: point of attachment. Stearoyl = CCCCCCCCCCCCCCCCCC(=O)*; Palmitoyl = CCCCCCCCCCCCCCCC(=O)*; Myristoyl = CCCCCCCCCCCCCC(=O)*; Lauroyl = CCCCCCCCCCCC(=O)*; Decanoyl = CCCCCCCCCC(=O)*; Octanoyl = CCCCCCCC(=O)*

As a reminder, the IC50 is the midpoint of a concentration-inhibition curve.

The subject of data set [1] is PDH. Conditions: 24 hours at 37°C, 5% CO2, fluorescence microscopy; for FITC-labelled cells (internalization): 0.5 µM; for percentage of FITC-labelled cells: 2 µM.
Description: Next we analyzed cellular internalization of Deca-(Arg)8-FITC and Arg8-FITC in PDH cells using fluorescence microscopy.
(A); PDHs were plated and treated with (Arg)8 (left panel) or Deca-(Arg)8 (right panel) coupled to FITC at different concentration ranking from 0.5 µM to 2 µM and cells were incubated at 37°c, 5% of CO2 for 24 hours. Cells were observed by fluorescence microscopy (Magnificationx20).
The subject of data set [2] is Duck Hepatitis B Virus (DHBV). As for the experimental part: (§1) Infected PDH and LMH-D2 cells were treated with 2 µM of several modified cationic peptides for 5 days. Cells supernatants were collected daily and were spotted onto positively charged nylon membrane and DHBV DNA was detected by hybridization with a DHBV DNA probe labeled with ^32P, and then was quantified by PhosphorImager scanning using ImageQuant software (Molecular Dynamics) to monitor DHBV release. Relative areas under curves determined by the means of duplicate, compared to untreated cells set at 100% are represented. […] Cell viability was determined by enzymatic activity MTT assay after daily incubation with different concentrations of Deca-(Arg)8 ranking from 1 µM to 4 µM during six days. The error bars display the standard deviation of duplicates in three independent experiments.
(§2) DHBV-infected PDHs (A), and stable transfected LMH-D2 cells (B) were treated with increasing amounts of Deca-(Arg)8 ranking from 0.25 µM to 2 µM in duplicates for 6 and 4 days, respectively. Cell culture supernatants were collected daily during treatment. The kinetics of viral release in cell culture supernatants, monitored by dot-blot hybridization and quantified by PhosphorImager scanning using ImageQuant software (Molecular Dynamics) is represented on the upper panel. Relative areas under curves determined by the means of duplicate, compared to untreated cells, are represented in the lower panel. The curves are representative of at least two independent experiments.
(§3) Primary duck hepatocytes (PDH) were isolated from Pekin duck embryos as previously described. DHBV infection was performed at the same time as plating by overnight incubation (16 h) of the hepatocytes with a virus-positive duck serum (30 virus genome equivalents (vge) per cell). The previously described avian hepatoma DHBV transfected LMH-D2 cell line, [38] was grown as previously described. The stably HBV-transfected cell line HepG2.2.15 was grown as previously described. Different amounts of CatLip were added daily to the culture medium from day 1 post-seeding and cells were lyzed at the end of treatment for analysis of intracellular viral DNA, RNA, and proteins. The growth medium was harvested and changed daily. The cellular toxicity was analyzed by daily examination of cells with a light microscope and by a cell toxicity test based on the (3-(4,5-dimethylthiazol-2-yl)-2,5 diphenyl-tetrazolium-bromide (MTT) assay.
(§4) Cells supernatants were harvested daily, spotted onto positively charged nylon membrane and extracellular DHBV DNA was detected in supernatant of cells by dot blot hybridization assay using a full-length ^32P-labelled DHBV probe as described previously. For DHBV intermediate replicative forms analysis, DNA was extracted from cells and 10 µg of the total cellular DNA were subjected to electrophoresis on 1% agarose gel, followed by Southern blot analysis and hybridization with ^32P-labeled genomic DHBV probe as previously described. Viral DNA was quantified by PhosphorImager scanning using ImageQuant software (Molecular Dynamics).

Data set [3] relates to Duck Hepatitis B Virus (DHBV). Put plainly: Inhibition of DHBV release in stably DHBV-transfected LMH-D2 cells (dot-blot of supernatant DHBV DNA). In kind it is cell-based. As to conditions: concentration of CPP resulting in 50% inhibition of DHBV release, peptide added daily, PhosphorImager. As for the experimental part: as §1, §2, §3, §4
Data set [4] relates to PDH. The data set can be described thus: MTT cell viability, PDH. In kind it is cell-based, Pekin duck. As to conditions: daily exposure 1 µM to 4 µM for 6 days, duplicates in three independent experiments. Here is the method:
(§5) Figure 1 Inhibition of DHBV release in PDHs and LMH-D2 cells by modified cationic peptides and effect of Deca-(Arg)8 on cell viability. Infected PDH and LMH-D2 cells were treated with 2 µM of several modified cationic peptides for 5 days. […] Relative areas under curves determined by the means of duplicate, compared to untreated cells set at 100% are represented. The two representations show the effect of modified cationic peptides derived from (Arg)8 sequence with increasing number of arginine in the peptide (A) or with increasing number of carbon in the fatty acid chain (B). Dose-dependent effects of Deca-(Arg)8 transduction on cell viability (C). Cell viability was determined by enzymatic activity MTT assay after daily incubation with different concentrations of Deca-(Arg)8 ranking from 1 µM to 4 µM during six days. The error bars display the standard deviation of duplicates in three independent experiments. […]
(§6) Primary duck hepatocytes (PDH) were isolated from Pekin duck embryos as previously described. […] The cellular toxicity was analyzed by daily examination of cells with a light microscope and by a cell toxicity test based on the (3-(4,5-dimethylthiazol-2-yl)-2,5 diphenyl-tetrazolium-bromide (MTT) assay.

In a further data set the test system is LMH-D2 cells. The class given is cell-based, avian. As to conditions: daily exposure 1 µM to 4 µM for 6 days, duplicates in three independent experiments. Here is the method:
as §5, §6

With “Decanoic acid (C10:0)-Fluoresceinyl-lysine–RRRRRRRRG-NH2 [Deca-(Arg)8-FITC]”, in the data set with PDH [1], the “FITC-labelled cells (internalization)” value is recorded as “a higher number of FITC-labelled cells were observable” and the “percentage of FITC-labelled cells” value is on record as “more than 90%”.

Take “Fluoresceinyl-lysine-RRRRRRRRG-NH2 [(Arg)8-FITC]”: in the data set on PDH [1], the “FITC-labelled cells (internalization)” value is “remained negative” and the “percentage of FITC-labelled cells” value was found to be 70%.

`CCCCCCCC(=O)N[C@H](Cc1c[nH]c2ccccc12)C(=O)N[C@H](CCCNC(=N)N)C(=O)N[C@H](CCCNC(=N)N)C(=O)N[C@H](CCCNC(=N)N)C(=O)N[C@H](CCCNC(=N)N)C(=O)N[C@H](CCCNC(=N)N)C(=O)N[C@H](CCCNC(=N)N)C(=O)N[C@H](CCCNC(=N)N)C(=O)N[C@H](CCCNC(=N)N)C(=O)NCC(N)=O` [Octa-(Arg)8] (Octanoyl-[dW][dR][dR][dR][dR][dR][dR][dR][dR]G-NH2): the IC50 in data set [2] (16 h) was 1.7 µM; in data set [3], 2.7 µM. Turning to `CCCCCCCCCC(=O)N[C@H](Cc1c[nH]c2ccccc12)C(=O)N[C@H](CCCNC(=N)N)C(=O)N[C@H](CCCNC(=N)N)C(=O)N[C@H](CCCNC(=N)N)C(=O)N[C@H](CCCNC(=N)N)C(=O)N[C@H](CCCNC(=N)N)C(=O)N[C@H](CCCNC(=N)N)C(=O)NCC(N)=O` [Deca-(Arg)6], the IC50 in data set [2] (read-out: IC50 of DHBV release, PDH, DHBV-infected PDH, concentration of CPP resulting in 50% inhibition of DHBV release, peptide added daily, supernatant DHBV DNA by dot-blot, 32P probe, PhosphorImager) came to 1.4 µM; in data set [3] it was 2.2 µM. The compound `CCCCCCCCCC(=O)N[C@H](Cc1c[nH]c2ccccc12)C(=O)N[C@H](CCCNC(=N)N)C(=O)N[C@H](CCCNC(=N)N)C(=O)N[C@H](CCCNC(=N)N)C(=O)N[C@H](CCCNC(=N)N)C(=O)N[C@H](CCCNC(=N)N)C(=O)N[C@H](CCCNC(=N)N)C(=O)N[C@H](CCCNC(=N)N)C(=O)N[C@H](CCCNC(=N)N)C(=O)N[C@H](CCCNC(=N)N)C(=O)N[C@H](CCCNC(=N)N)C(=O)NCC(N)=O` [Deca-(Arg)10] gave an IC50 in data set [2] (16 h) of 1.4 µM. Consider `CCCCCCCCCCCCCC(=O)N[C@H](Cc1c[nH]c2ccccc12)C(=O)N[C@H](CCCNC(=N)N)C(=O)N[C@H](CCCNC(=N)N)C(=O)N[C@H](CCCNC(=N)N)C(=O)N[C@H](CCCNC(=N)N)C(=O)N[C@H](CCCNC(=N)N)C(=O)N[C@H](CCCNC(=N)N)C(=O)N[C@H](CCCNC(=N)N)C(=O)N[C@H](CCCNC(=N)N)C(=O)NCC(N)=O` [Myrist-(Arg)8] (Myristoyl-[dW][dR][dR][dR][dR][dR][dR][dR][dR]G-NH2), for which the IC50 in data set [2] (16 h) and in data set [3] was 1.2 µM throughout. On to `CCCCCCCCCC(=O)N[C@H](CCCNC(=N)N)C(=O)N[C@H](CCCNC(=N)N)C(=O)N[C@H](CCCNC(=N)N)C(=O)N[C@H](CCCNC(=N)N)C(=O)N[C@H](CCCCN)C(=O)N[C@H](CCCCN)C(=O)N[C@H](CCCCN)C(=O)N[C@H](CCCCN)C(=O)NCC(N)=O` [Deca-(Arg-Lys)4–4] (Decanoyl-[dR][dR][dR][dR][dK][dK][dK][dK]G-NH2), for which the IC50 in data set [2] (16 h) amounted to 2.3 µM. For the compound `CCCCCCCCCCCCCCCCCC(=O)N[C@H](Cc1c[nH]c2ccccc12)C(=O)N[C@H](CCCNC(=N)N)C(=O)N[C@H](CCCNC(=N)N)C(=O)N[C@H](CCCNC(=N)N)C(=O)N[C@H](CCCNC(=N)N)C(=O)N[C@H](CCCNC(=N)N)C(=O)N[C@H](CCCNC(=N)N)C(=O)N[C@H](CCCNC(=N)N)C(=O)N[C@H](CCCNC(=N)N)C(=O)NCC(N)=O` [Stear-(Arg)8] (Stearoyl-[dW][dR][dR][dR][dR][dR][dR][dR][dR]G-NH2), the IC50 in data set [2] (16 h) is 1.9 µM; in data set [3], 1.8 µM. For `CCCCCCCCCCCC(=O)N[C@H](Cc1c[nH]c2ccccc12)C(=O)N[C@H](CCCNC(=N)N)C(=O)N[C@H](CCCNC(=N)N)C(=O)N[C@H](CCCNC(=N)N)C(=O)N[C@H](CCCNC(=N)N)C(=O)N[C@H](CCCNC(=N)N)C(=O)N[C@H](CCCNC(=N)N)C(=O)N[C@H](CCCNC(=N)N)C(=O)N[C@H](CCCNC(=N)N)C(=O)NCC(N)=O` [Dodeca-(Arg)8] (Lauroyl-[dW][dR][dR][dR][dR][dR][dR][dR][dR]G-NH2) the same measures were 0.9 µM and 0.7 µM. `CCCCCCCCCC(=O)N[C@H](Cc1c[nH]c2ccccc12)C(=O)N[C@H](CCCNC(=N)N)C(=O)N[C@H](CCCNC(=N)N)C(=O)N[C@H](CCCNC(=N)N)C(=O)N[C@H](CCCNC(=N)N)C(=O)N[C@H](CCCNC(=N)N)C(=O)N[C@H](CCCNC(=N)N)C(=O)N[C@H](CCCNC(=N)N)C(=O)N[C@H](CCCNC(=N)N)C(=O)N[C@H](CCCNC(=N)N)C(=O)NCC(N)=O` [Deca-(Arg)9] (Decanoyl-[dW][dR][dR][dR][dR][dR][dR][dR][dR][dR]G-NH2) showed an IC50 in data set [2] (16 h) of 1.6 µM.

For `CCCCCCCCCC(=O)O` [decanoic acid, reference compound], the “effect on DHBV secretion” value in data set [2] (5-days treatment, decanoic acid 0.5 to 10 µM, Fig. S2 (PDH and LMH-D2)) is recorded as “unable to significantly decrease DHBV secretion”. Regarding `N=C(N)NCCC[C@@H](NC(=O)[C@H](N)Cc1c[nH]c2ccccc12)C(=O)N[C@H](CCCNC(=N)N)C(=O)N[C@H](CCCNC(=N)N)C(=O)N[C@H](CCCNC(=N)N)C(=O)N[C@H](CCCNC(=N)N)C(=O)N[C@H](CCCNC(=N)N)C(=O)N[C@H](CCCNC(=N)N)C(=O)N[C@H](CCCNC(=N)N)C(=O)NCC(N)=O` [(Arg)8] (H-[dW][dR][dR][dR][dR][dR][dR][dR][dR]G-NH2), in data set [2] (5-days treatment, (Arg)8 0.5 to 2 µM, compared with Deca-(Arg)8, Fig. S2 (PDH and LMH-D2; cell system not given)), the “inhibition of DHBV secretion” value is recorded as 60%. Moreover, the IC50 in data set [2] (16 h) came out at 1.8 µM; in data set [3], 1.3 µM. With `CCCCCCCCCC(=O)N[C@H](Cc1c[nH]c2ccccc12)C(=O)N[C@H](CCCNC(=N)N)C(=O)N[C@H](CCCNC(=N)N)C(=O)N[C@H](CCCNC(=N)N)C(=O)N[C@H](CCCNC(=N)N)C(=O)N[C@H](CCCNC(=N)N)C(=O)N[C@H](CCCNC(=N)N)C(=O)N[C@H](CCCNC(=N)N)C(=O)N[C@H](CCCNC(=N)N)C(=O)NCC(N)=O` [Deca-(Arg)8] (Decanoyl-[dW][dR][dR][dR][dR][dR][dR][dR][dR]G-NH2), the “cell viability (MTT) versus untreated cells” value in the data set on PDH [4] and in the data set with LMH-D2 cells was “No statistically significant difference” each time. In addition, the IC50 in data set [2] (16 h) turned out to be 0.6 µM; in data set [3] it was 0.3 µM.

Consider `CCCCCCCCCC(=O)N[C@H](Cc1c[nH]c2ccccc12)C(=O)N[C@H](CCCNC(=N)N)C(=O)N[C@H](CCCNC(=N)N)C(=O)N[C@H](CCCNC(=N)N)C(=O)N[C@H](CCCNC(=N)N)C(=O)N[C@H](CCCNC(=N)N)C(=O)N[C@H](CCCNC(=N)N)C(=O)N[C@H](CCCNC(=N)N)C(=O)NCC(N)=O` [Deca-(Arg)7], for which the IC50 in data set [2] (16 h) came out at 0.9 µM; in data set [3] it was 0.8 µM. On the same counts, the results for `CCCCCCCCCCCCCCCC(=O)N[C@H](Cc1c[nH]c2ccccc12)C(=O)N[C@H](CCCNC(=N)N)C(=O)N[C@H](CCCNC(=N)N)C(=O)N[C@H](CCCNC(=N)N)C(=O)N[C@H](CCCNC(=N)N)C(=O)N[C@H](CCCNC(=N)N)C(=O)N[C@H](CCCNC(=N)N)C(=O)N[C@H](CCCNC(=N)N)C(=O)N[C@H](CCCNC(=N)N)C(=O)NCC(N)=O` [Palmit-(Arg)8] (Palmitoyl-[dW][dR][dR][dR][dR][dR][dR][dR][dR]G-NH2) are 1.8 µM and 1.7 µM.
